Measured values: patent US11427615B2, “Peptide compound and application thereof, and composition containing peptide compound” (XDCEXPLORER (SHANGHAI) CO., LTD., priority 2017, dated 2022)
Starred links: 1 amine or outer side, 2 acyl side, 3 side chain; linkers in the order of their positions; H or OH if unused. Non-standard residues stand in square brackets, D forms with d. Residues, ends and D or L forms follow the SMILES beside them. Ala(1-Me-3-pyridinium) = C[n+]1cccc(C[C@H](N)C(=O)O)c1; X11 = O=C(c1nnc([C@H](Cc2ccccc2)N[*:1])[nH]1)[*:2]; X14 = O=C(c1cnc([C@H](Cc2ccccc2)N[*:1])[nH]1)[*:2]; dPhe(2,4-Cl2) = N[C@H](Cc1ccc(Cl)cc1Cl)C(=O)O; dPhe(3-Cl) = N[C@H](Cc1cccc(Cl)c1)C(=O)O; dPhe(4-Cl) = N[C@H](Cc1ccc(Cl)cc1)C(=O)O; X12 = O=C([C@@H]1Cc2ccccc2N1[*:1])[*:2]; Pro(4,4-F2) = O=C(O)[C@@H]1CC(F)(F)CN1; dAla(2-furyl) = N[C@H](Cc1ccco1)C(=O)O; dPhe(4-F) = N[C@H](Cc1ccc(F)cc1)C(=O)O; azaPhe = O=C(N(Cc1ccccc1)N[*:1])[*:2]; Arg(Me) = CNC(=N)NCCC[C@H](N)C(=O)O; Hyp = O=C(O)[C@@H]1C[C@@H](O)CN1; Tic = O=C(O)[C@@H]1Cc2ccccc2CN1; 2Thi = N[C@@H](Cc1cccs1)C(=O)O; Pip = O=C(O)[C@@H]1CCCCN1; dPip = O=C(O)[C@H]1CCCCN1; Ac6c = NC1(C(=O)O)CCCCC1; Aze = O=C(O)[C@@H]1CCN1; azaGly = NNC(=O)O

What follows are compounds tested against T1, human kiss1 receptor (GPR54) (Homo sapiens, UniProt Q969F8) (assay: Kiss1 receptor (GPR54) binding activity of agonists, FRET detection in NFAT-bla CHO-K1 cells). Settings: GPR54; measured according to the method of effect Embodiment 1; preliminary data; read-out: Preliminary measurement data (GPR54) EC50.
T1 construct: host or cells: NFAT-bla CHO-K1 cells (Chinese hamster ovary), purchased recombinant cell line
Assay type: cell-based

T1 sequence (Q969F8 whole entry): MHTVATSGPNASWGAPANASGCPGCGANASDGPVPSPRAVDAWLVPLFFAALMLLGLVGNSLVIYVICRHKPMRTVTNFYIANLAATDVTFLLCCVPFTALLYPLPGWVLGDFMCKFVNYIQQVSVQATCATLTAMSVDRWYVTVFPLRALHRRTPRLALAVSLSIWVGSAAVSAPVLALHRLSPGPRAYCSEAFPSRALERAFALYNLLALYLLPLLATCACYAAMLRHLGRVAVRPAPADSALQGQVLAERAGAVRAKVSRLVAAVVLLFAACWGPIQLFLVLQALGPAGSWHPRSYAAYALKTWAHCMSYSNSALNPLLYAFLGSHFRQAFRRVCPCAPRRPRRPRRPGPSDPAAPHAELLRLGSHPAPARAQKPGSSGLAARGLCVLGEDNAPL

Structure (SMILES) | EC50 [nM]
CNC(=N)NCCC[C@H](NC(=O)[C@H](CC(C)C)NC(=O)C1(NC(=O)[C@H](Cc2ccccc2)NC(=O)[C@@H](NC(=O)[C@H](CC(N)=O)NC(=O)[C@H](Cc2cccs2)NC(=O)[C@@H](Cc2ccc(Cl)cc2Cl)NC(C)=O)[C@@H](C)O)CCCCC1)C(=O)N[C@@H](Cc1c[nH]c2ccccc12)C(N)=O [YA-206, Ac-[D-Phe(2,4-DiCl)]-Thi-Asn-Thr-Phe-A6c-Leu-Arg(Me)-Trp-NH2] (Ac-[dPhe(2,4-Cl2)][2Thi]NTF[Ac6c]L[Arg(Me)]W-NH2) | 3.6
CNC(=N)NCCC[C@H](NC(=O)[C@H](CC(C)C)NC(=O)C1(NC(=O)[C@H](Cc2ccccc2)NC(=O)[C@@H](NC(=O)[C@H](CC(N)=O)NC(=O)[C@H](Cc2c[nH]c3ccccc23)NC(=O)[C@H](Cc2cccs2)NC(=O)[C@@H](Cc2ccc(Cl)cc2Cl)NC(C)=O)[C@@H](C)O)CCCCC1)C(=O)N[C@@H](Cc1c[nH]c2ccccc12)C(N)=O [YA-207, Ac-[D-Phe(2,4-DiCl)]-Thi-Trp-Asn-Thr-Phe-A6c-Leu-Arg(Me)-Trp-NH2] (Ac-[dPhe(2,4-Cl2)][2Thi]WNTF[Ac6c]L[Arg(Me)]W-NH2) | 90
CNC(=N)NCCC[C@H](NC(=O)[C@H](CC(C)C)NC(=O)c1cnc([C@H](Cc2ccccc2)NC(=O)[C@@H](NC(=O)[C@H](CC(N)=O)NC(=O)[C@@H]2C[C@@H](O)CN2C(=O)[C@@H](Cc2ccc(O)cc2)NC(C)=O)[C@@H](C)O)[nH]1)C(=O)N[C@@H](Cc1c[nH]c2ccccc12)C(N)=O [YA-208, Ac-(D-Tyr)-Hyp-Asn-Thr-{(S)-2-(1-amino-2-phenylethyl)-1H-imidazole-5-carboxylic acid}-Leu-Arg(Me)-Trp-NH2] (Ac-[dY][Hyp]NT[X14]L[Arg(Me)]W-NH2) | 1.09
CNC(=N)NCCC[C@H](NC(=O)[C@H](CC(C)C)NC(=O)c1nnc([C@H](Cc2ccccc2)NC(=O)[C@@H](NC(=O)[C@H](CC(N)=O)NC(=O)[C@@H]2C[C@@H](O)CN2C(=O)[C@@H](Cc2ccc(O)cc2)NC(C)=O)[C@@H](C)O)[nH]1)C(=O)N[C@@H](Cc1c[nH]c2ccccc12)C(N)=O [YA-209, Ac-(D-Tyr)-Hyp-Asn-Thr-{(S)-5-(1-amino-2-phenylethyl)-4H-1,2,4-triazole-3-carboxylic acid}-Leu-Arg(Me)-Trp-NH2] (Ac-[dY][Hyp]NT[X11]L[Arg(Me)]W-NH2) | 1.4
CNC(=N)NCCC[C@H](NC(=O)[C@H](CC(C)C)NC(=O)C1(NC(=O)[C@H](Cc2ccccc2)NC(=O)[C@@H](NC(=O)[C@H](CC(N)=O)NC(=O)[C@@H]2CCCCN2C(=O)[C@@H](Cc2ccc(F)cc2)NC(C)=O)[C@@H](C)O)CCCCC1)C(=O)N[C@@H](Cc1c[nH]c2ccccc12)C(N)=O [YA-210, Ac-[D-Phe(4-F)]-(S-Pip)-Asn-Thr-Phe-A6c-Leu-Arg(Me)-Trp-NH2] (Ac-[dPhe(4-F)][Pip]NTF[Ac6c]L[Arg(Me)]W-NH2) | 1.47
CNC(=N)NCCC[C@H](NC(=O)[C@H](CC(C)C)NC(=O)[C@@H]1CCN1C(=O)[C@H](Cc1ccccc1)NC(=O)[C@@H](NC(=O)[C@H](CC(N)=O)NC(=O)[C@@H]1CCCCN1C(=O)[C@@H](Cc1ccc(F)cc1)NC(C)=O)[C@@H](C)O)C(=O)N[C@@H](Cc1c[nH]c2ccccc12)C(N)=O [YA-211, Ac-[D-Phe(4-F)]-(S-Pip)-Asn-Thr-Phe-Aze-Leu-Arg(Me)-Trp-NH2] (Ac-[dPhe(4-F)][Pip]NTF[Aze]L[Arg(Me)]W-NH2) | 1.13
CNC(=N)NCCC[C@H](NC(=O)[C@H](CC(C)C)NC(=O)C1(NC(=O)[C@H](Cc2ccccc2)NC(=O)[C@@H](NC(=O)[C@H](CC(N)=O)NC(=O)[C@@H]2CC(F)(F)CN2C(=O)[C@@H](Cc2ccc(F)cc2)NC(C)=O)[C@@H](C)O)CCCCC1)C(=O)N[C@@H](Cc1c[nH]c2ccccc12)C(N)=O [YA-212, Ac-[D-Phe(4-F)]-Pro(diF)-Asn-Thr-Phe-A6c-Leu-Arg(Me)-Trp-NH2] (Ac-[dPhe(4-F)][Pro(4,4-F2)]NTF[Ac6c]L[Arg(Me)]W-NH2) | 0.5
CNC(=N)NCCC[C@H](NC(=O)[C@H](CC(C)C)NC(=O)[C@@H]1CCN1C(=O)[C@H](Cc1ccccc1)NC(=O)[C@@H](NC(=O)[C@H](CC(N)=O)NC(=O)[C@@H]1CC(F)(F)CN1C(=O)[C@@H](Cc1ccc(F)cc1)NC(C)=O)[C@@H](C)O)C(=O)N[C@@H](Cc1c[nH]c2ccccc12)C(N)=O [YA-213, Ac-[D-Phe(4-F)]-Pro(diF)-Asn-Thr-Phe-Aze-Leu-Arg(Me)-Trp-NH2] (Ac-[dPhe(4-F)][Pro(4,4-F2)]NTF[Aze]L[Arg(Me)]W-NH2) | 0.4
CNC(=N)NCCC[C@H](NC(=O)[C@H](CC(C)C)NC(=O)NNC(=O)[C@H](Cc1ccccc1)NC(=O)[C@@H](NC(=O)[C@H](CC(N)=O)NC(=O)[C@@H]1C[C@@H](O)CN1C(=O)[C@@H](Cc1ccc(Cl)cc1)NC(C)=O)[C@@H](C)O)C(=O)N[C@@H](Cc1c[nH]c2ccccc12)C(N)=O [YA-214, Ac-[D-Phe(4-Cl)]-Hyp-Asn-Thr-Phe-azaGly-Leu-Arg(Me)-Trp-NH2] (Ac-[dPhe(4-Cl)][Hyp]NTF[azaGly]L[Arg(Me)]W-NH2) | 0.083
CNC(=N)NCCC[C@H](NC(=O)[C@H](CC(C)C)NC(=O)NNC(=O)[C@H](Cc1ccccc1)NC(=O)[C@@H](NC(=O)[C@H](CC(N)=O)NC(=O)[C@@H]1C[C@@H](O)CN1C(=O)[C@@H](Cc1cccc(Cl)c1)NC(C)=O)[C@@H](C)O)C(=O)N[C@@H](Cc1c[nH]c2ccccc12)C(N)=O [YA-215, Ac-[D-Phe(3-Cl)]-Hyp-Asn-Thr-Phe-azaGly-Leu-Arg(Me)-Trp-NH2] (Ac-[dPhe(3-Cl)][Hyp]NTF[azaGly]L[Arg(Me)]W-NH2) | 0.122
CNC(=N)NCCC[C@H](NC(=O)[C@H](CC(C)C)NC(=O)[C@@H]1Cc2ccccc2N1C(=O)[C@H](Cc1ccccc1)NC(=O)[C@@H](NC(=O)[C@H](CC(N)=O)NC(=O)[C@@H]1C[C@@H](O)CN1C(=O)[C@@H](Cc1ccc(O)cc1)NC(C)=O)[C@@H](C)O)C(=O)N[C@@H](Cc1c[nH]c2ccccc12)C(N)=O [YA-221, Ac-D-Tyr-Hyp-Asn-Thr-Phe-Ind-Leu-Arg(Me)-Trp-NH2] (Ac-[dY][Hyp]NTF[X12]L[Arg(Me)]W-NH2) | 0.64
CNC(=N)NCCC[C@H](NC(=O)[C@H](CC(C)C)NC(=O)[C@@H]1Cc2ccccc2N1C(=O)[C@H](Cc1ccccc1)NC(=O)[C@@H](NC(=O)[C@H](CC(N)=O)NC(=O)[C@@H]1CC(F)(F)CN1C(=O)[C@@H](Cc1ccco1)NC(C)=O)[C@@H](C)O)C(=O)N[C@@H](Cc1c[nH]c2ccccc12)C(N)=O [YA-223, Ac-[3-(2-furyl)-D-Ala]-DifluoroPro-Asn-Thr-Phe-Ind-Leu-Arg(Me)-Trp-NH2] (Ac-[dAla(2-furyl)][Pro(4,4-F2)]NTF[X12]L[Arg(Me)]W-NH2) | 4.4
CNC(=N)NCCC[C@H](NC(=O)[C@H](CC(C)C)NC(=O)C1(NC(=O)[C@H](Cc2ccccc2)NC(=O)[C@@H](NC(=O)[C@H](CC(N)=O)NC(=O)[C@@H]2CC(F)(F)CN2C(=O)[C@@H](Cc2ccco2)NC(C)=O)[C@@H](C)O)CCCCC1)C(=O)N1Cc2ccccc2C[C@H]1C(N)=O [YA-224, Ac-[3-(2-furyl)-D-Ala]-DifluoroPro-Asn-Thr-Phe-A6C-Leu-Arg(Me)-Tic-NH2] (Ac-[dAla(2-furyl)][Pro(4,4-F2)]NTF[Ac6c]L[Arg(Me)][Tic]-NH2) | 6.5
CNC(=N)NCCC[C@H](NC(=O)[C@H](CC(C)C)NC(=O)[C@@H]1CCCCN1C(=O)[C@H](Cc1ccccc1)NC(=O)[C@@H](NC(=O)[C@H](CC(N)=O)NC(=O)[C@@H]1C[C@@H](O)CN1C(=O)[C@@H](Cc1ccc(O)cc1)NC(C)=O)[C@@H](C)O)C(=O)N[C@@H](Cc1c[nH]c2ccccc12)C(N)=O [YA-226, Ac-(D-Tyr)-Hyp-Asn-Thr-Phe-(S-Pip)-Leu-Arg(Me)-Trp-NH2] (Ac-[dY][Hyp]NTF[Pip]L[Arg(Me)]W-NH2) | 8
CNC(=N)NCCC[C@H](NC(=O)[C@H](CC(C)C)NC(=O)[C@H]1CCCCN1C(=O)[C@H](Cc1ccccc1)NC(=O)[C@@H](NC(=O)[C@H](CC(N)=O)NC(=O)[C@@H]1C[C@@H](O)CN1C(=O)[C@@H](Cc1ccc(O)cc1)NC(C)=O)[C@@H](C)O)C(=O)N[C@@H](Cc1c[nH]c2ccccc12)C(N)=O [YA-227, Ac-(D-Tyr)-Hyp-Asn-Thr-Phe-(R-Pip)-Leu-Arg(Me)-Trp-NH2] (Ac-[dY][Hyp]NTF[dPip]L[Arg(Me)]W-NH2) | 1.89
CNC(=N)NCCC[C@H](NC(=O)[C@H](CC(C)C)NC(=O)C1(NC(=O)[C@H](Cc2ccccc2)NC(=O)[C@@H](NC(=O)[C@H](CC(N)=O)NC(=O)[C@@H]2CCCCN2C(=O)[C@@H](Cc2ccc(O)cc2)NC(C)=O)[C@@H](C)O)CCCCC1)C(=O)N[C@@H](Cc1c[nH]c2ccccc12)C(N)=O [YA-228, Ac-D-Tyr-(S-Pip)-Asn-Thr-Phe-A6c-Leu-Arg(Me)-Trp-NH2] (Ac-[dY][Pip]NTF[Ac6c]L[Arg(Me)]W-NH2) | 0.65
CNC(=N)NCCC[C@H](NC(=O)[C@H](CC(C)C)NC(=O)C1(NC(=O)[C@H](Cc2ccccc2)NC(=O)[C@@H](NC(=O)[C@H](CC(N)=O)NC(=O)[C@H]2CCCCN2C(=O)[C@@H](Cc2ccc(O)cc2)NC(C)=O)[C@@H](C)O)CCCCC1)C(=O)N[C@@H](Cc1c[nH]c2ccccc12)C(N)=O [YA-229, Ac-(D-Tyr)-(R-Pip)-Asn-Thr-Phe-A6c-Leu-Arg(Me)-Trp-NH2] (Ac-[dY][dPip]NTF[Ac6c]L[Arg(Me)]W-NH2) | 20.3
CNC(=N)NCCC[C@H](NC(=O)[C@H](CC(C)C)NC(=O)NNC(=O)[C@H](Cc1ccccc1)NC(=O)[C@@H](NC(=O)[C@H](CC(N)=O)NC(=O)[C@@H]1C[C@@H](O)CN1C(=O)[C@H](Cc1ccc[n+](C)c1)NC(C)=O)[C@@H](C)O)C(=O)N[C@@H](Cc1c[nH]c2ccccc12)C(N)=O [YA-239, Ac-[(S)-3-(2-amino-2-carboxyethyl)-1-methylpyridinium]-Hyp-Asn-Thr-Phe-azaGly-Leu-Arg(Me)-Trp-NH2] (Ac-[Ala(1-Me-3-pyridinium)][Hyp]NTF[azaGly]L[Arg(Me)]W-NH2) | 1

Same assay, conditions: Preliminary measurement data (GPR54) EC50, nM), GPR54; measured according to the method of effect Embodiment 1; preliminary data

Structure (SMILES) | EC50 [nM]
CNC(=N)NCCC[C@H](NC(=O)[C@H](CC(C)C)NC(=O)CNC(=O)N(Cc1ccccc1)NC(=O)[C@@H](NC(=O)[C@H](CC(N)=O)NC(=O)[C@@H]1CCCCN1C(=O)[C@@H](Cc1ccc(Cl)cc1Cl)NC(C)=O)[C@@H](C)O)C(=O)N[C@@H](Cc1c[nH]c2ccccc12)C(N)=O [YA-241, Ac-[D-Phe(2,4-diCl)]—(S-Pip)-Asn-Thr-azaPhe-Gly-Leu-Arg(Me)-Trp-NH2] (Ac-[dPhe(2,4-Cl2)][Pip]NT[azaPhe]GL[Arg(Me)]W-NH2) | 0.93
